# Results as given in ChEMBL document CHEMBL1201862, “PubChem BioAssay data set” (2004).
#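 Growth conditions: 96-well plates. Treatment: test compound, 48 hours, 5 concentrations. Analysis: linear interpolation between bracketing concentrations; unreached endpoints set to highest concentration. GI50 = concentration required for 50% inhibition of growth.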 The source made the active and inactive calls. Rule as the data show it: active = GI50 up to about 1.1 µM and inactive = higher.
# Columns and labels:
# Experiment in all cases: NCI tumour cell line growth inhibition, 48 h
# OVCAR-8 = test system: OVCAR-8
# NCI-H23 = test system: NCI-H23
# NCI-H522 = test system: NCI-H522
# SNB-19 = test system: SNB-19
# SK-MEL-5 = test system: SK-MEL-5
# M14 = test system: M14
# SNB-75 = test system: SNB-75
# KM12 = test system: KM12
# SK-OV-3 = test system: SK-OV-3
# HCT-15 = test system: HCT-15
# Malme-3M = test system: Malme-3M
# OVCAR-3 = test system: OVCAR-3
# LXFL 529 = test system: LXFL 529
# RPMI-8226 = test system: RPMI-8226
# HOP-62 = test system: HOP-62
# SN12C = test system: SN12C
# OVCAR-4 = test system: OVCAR-4
# KM-20L2 = test system: KM-20L2
# SR = test system: SR
# 786-0 = test system: 786-0
# HOP-18 = test system: HOP-18
# SK-MEL-28 = test system: SK-MEL-28
# DLD-1 = test system: DLD-1
# HCC 2998 = test system: HCC 2998
# ACHN = test system: ACHN
# UACC-257 = test system: UACC-257
# HT-29 = test system: HT-29
# K562 = test system: K562
# SK-MEL-2 = test system: SK-MEL-2
# SNB-78 = test system: SNB-78
# UACC-62 = test system: UACC-62
# RXF 631 = test system: RXF 631
# DMS-273 = test system: DMS-273
# CAKI-1 = test system: CAKI-1
# SF-295 = test system: SF-295
# U-251 = test system: U-251
# A498 = test system: A498
# SF-268 = test system: SF-268
# HL-60 = test system: HL-60
# MOLT-4 = test system: MOLT-4
# NCI-H460 = test system: NCI-H460
# SF-539 = test system: SF-539
# CCRF-CEM = test system: CCRF-CEM
# SW-620 = test system: SW-620
# IGROV-1 = test system: IGROV-1
# DMS-114 = test system: DMS-114
# NCI-H226 = test system: NCI-H226
# COLO 205 = test system: COLO 205
# UO-31 = test system: UO-31
# OVCAR-5 = test system: OVCAR-5
# HCT-116 = test system: HCT-116
# TK-10 = test system: TK-10
# LOX IMVI = test system: LOX IMVI
# RXF 393 = test system: RXF 393
# EKVX = test system: EKVX
# A549 = test system: A549
# HOP-92 = test system: HOP-92
smiles,measurement,setting,value
COc1cccc(N2C(=O)/C(=C/c3ccc(N(CCC#N)CCC#N)cc3)N=C2c2cc([N+](=O)[O-])ccc2Cl)c1,GI50,OVCAR-8,78.7 µM (inactive)
same,GI50,NCI-H23,89.1 µM (inactive)
same,GI50,NCI-H522,55.8 µM (inactive)
same,GI50,SNB-19,> 100 µM (inactive)
same,GI50,SK-MEL-5,84.9 µM (inactive)
same,GI50,M14,42.8 µM (inactive)
same,GI50,SNB-75,95.5 µM (inactive)
same,GI50,KM12,49.5 µM (inactive)
same,GI50,SK-OV-3,> 100 µM (inactive)
same,GI50,HCT-15,50.4 µM
same,GI50,Malme-3M,> 100 µM (inactive)
same,GI50,OVCAR-3,35.6 µM (inactive)
same,GI50,LXFL 529,67.9 µM (inactive)
same,GI50,RPMI-8226,68.1 µM (inactive)
same,GI50,HOP-62,50.9 µM (inactive)
same,GI50,SN12C,87.7 µM (inactive)
same,GI50,OVCAR-4,> 100 µM (inactive)
same,GI50,KM-20L2,97.9 µM (inactive)
same,GI50,SR,32.1 µM (inactive)
same,GI50,786-0,30.5 µM (inactive)
same,GI50,HOP-18,> 100 µM (inactive)
same,GI50,SK-MEL-28,> 100 µM (inactive)
same,GI50,DLD-1,60 µM (inactive)
same,GI50,HCC 2998,60.5 µM (inactive)
same,GI50,ACHN,44 µM (inactive)
same,GI50,UACC-257,> 100 µM (inactive)
same,GI50,HT-29,47 µM (inactive)
same,GI50,K562,34.5 µM (inactive)
same,GI50,SK-MEL-2,> 100 µM (inactive)
same,GI50,SNB-78,> 100 µM (inactive)
same,GI50,UACC-62,39.1 µM (inactive)
same,GI50,RXF 631,> 100 µM (inactive)
same,GI50,DMS-273,38.2 µM (inactive)
same,GI50,CAKI-1,> 100 µM (inactive)
same,GI50,SF-295,19.7 µM (inactive)
same,GI50,U-251,59.2 µM (inactive)
same,GI50,A498,> 100 µM (inactive)
same,GI50,SF-268,> 100 µM (inactive)
same,GI50,HL-60,49.8 µM (inactive)
same,GI50,MOLT-4,22.3 µM (inactive)
same,GI50,NCI-H460,43.5 µM (inactive)
same,GI50,SF-539,> 100 µM (inactive)
same,GI50,CCRF-CEM,48.8 µM (inactive)
same,GI50,SW-620,33.2 µM (inactive)
same,GI50,IGROV-1,50.7 µM (inactive)
same,GI50,DMS-114,> 100 µM (inactive)
same,GI50,NCI-H226,> 100 µM (inactive)
same,GI50,COLO 205,14.7 µM (inactive)
same,GI50,UO-31,82 µM (inactive)
same,GI50,OVCAR-5,18.5 µM (inactive)
Cc1cc(NS(=O)(=O)c2ccc(NC(=O)c3cccc4c(Nc5ccc(S(=O)(=O)N=C(N)N)cc5)c5ccccc5nc34)cc2)no1,GI50,HCT-116,> 100 µM (inactive)
same,GI50,OVCAR-8,> 100 µM (inactive)
same,GI50,NCI-H23,> 100 µM (inactive)
same,GI50,NCI-H522,> 100 µM (inactive)
same,GI50,SNB-19,> 100 µM (inactive)
same,GI50,SK-MEL-5,> 100 µM (inactive)
same,GI50,TK-10,> 100 µM (inactive)
same,GI50,LOX IMVI,> 100 µM (inactive)
same,GI50,M14,> 100 µM (inactive)
same,GI50,SNB-75,> 100 µM (inactive)
same,GI50,RXF 393,> 100 µM (inactive)
same,GI50,KM12,> 100 µM (inactive)
same,GI50,SK-OV-3,> 100 µM (inactive)
same,GI50,HCT-15,> 100 µM
same,GI50,Malme-3M,> 100 µM (inactive)
same,GI50,OVCAR-3,> 100 µM (inactive)
same,GI50,LXFL 529,> 100 µM (inactive)
same,GI50,RPMI-8226,> 100 µM (inactive)
same,GI50,HOP-62,> 100 µM (inactive)
same,GI50,SN12C,> 100 µM (inactive)
same,GI50,EKVX,> 100 µM (inactive)
same,GI50,OVCAR-4,> 100 µM (inactive)
same,GI50,KM-20L2,> 100 µM (inactive)
same,GI50,SR,> 100 µM (inactive)
same,GI50,786-0,> 100 µM (inactive)
same,GI50,SK-MEL-28,> 100 µM (inactive)
same,GI50,DLD-1,> 100 µM (inactive)
same,GI50,HCC 2998,> 100 µM (inactive)
same,GI50,ACHN,> 100 µM (inactive)
same,GI50,UACC-257,> 100 µM (inactive)
same,GI50,A549,> 100 µM (inactive)
same,GI50,HT-29,> 100 µM (inactive)
same,GI50,K562,> 100 µM (inactive)
same,GI50,SNB-78,> 100 µM (inactive)
same,GI50,UACC-62,> 100 µM (inactive)
same,GI50,RXF 631,> 100 µM (inactive)
same,GI50,DMS-273,> 100 µM (inactive)
same,GI50,CAKI-1,> 100 µM (inactive)
same,GI50,SF-295,> 100 µM (inactive)
same,GI50,HOP-92,> 100 µM (inactive)
same,GI50,U-251,> 100 µM (inactive)
same,GI50,A498,> 100 µM (inactive)
same,GI50,SF-268,> 100 µM (inactive)
same,GI50,HL-60,> 100 µM (inactive)
same,GI50,MOLT-4,> 100 µM (inactive)
same,GI50,NCI-H460,> 100 µM (inactive)
same,GI50,SF-539,> 100 µM (inactive)
same,GI50,SW-620,> 100 µM (inactive)
same,GI50,IGROV-1,> 100 µM (inactive)
same,GI50,NCI-H226,> 100 µM (inactive)
same,GI50,COLO 205,> 100 µM (inactive)
same,GI50,UO-31,> 100 µM (inactive)
same,GI50,OVCAR-5,> 100 µM (inactive)
